# Laboratory results: patent EP4635500A1, “THERAPEUTIC AGENT FOR BACTERIAL INFECTION” (Sumitomo Pharma Co., Ltd., priority 2022, dated 2024)
# Like-named read-outs stand apart in the source and are kept apart here.
# Legend:
# Experiment in all cases: MIC and MBC, broth microdilution (Example 4, Table 3)
# Type in all cases: cell-based
# Serratia marcescens = Serratia marcescens CDC-124 (SME-3)
# [1] = tested on: Enterobacter cloacae complex; settings: Enterobacter cloacae complex CDC-164 (NMC-A)
# Enterobacter aerogenes = tested on: Enterobacter aerogenes
# Acinetobacter baumannii = tested on: Acinetobacter baumannii
# [2] = Acinetobacter baumannii CDC-303 (OXA-23, OXA-66)
compound,measurement,setting,value
"CC(C)(O/N=C(\C(=O)N[C@@H]1C(=O)N2C(C(=O)[O-])=C(C[n+]3ccccc3)CS[C@H]12)c1csc(N)n1)C(=O)O [CAZ, ceftazidime]",MBC,Serratia marcescens,64 µg/mL
same,MBC/MIC ratio,Serratia marcescens,256
same,MIC,Serratia marcescens,0.25 µg/mL
same,MBC,[1],32 µg/mL
same,MBC/MIC ratio,[1],1
same,MIC,[1],32 µg/mL
same,MBC/MIC ratio,Enterobacter aerogenes; Enterobacter aerogenes CDC-161 (IMP-4),1
same,MBC,Enterobacter aerogenes; Klebsiella aerogenes,128 µg/mL
same,MIC,Enterobacter aerogenes; Klebsiella aerogenes,128 µg/mL
same,MBC/MIC ratio,Acinetobacter baumannii; [2],2
same,MIC,Acinetobacter baumannii; [2],64 µg/mL
same,MBC/MIC ratio,"Acinetobacter baumannii; Acinetobacter baumannii CDC-304 (OXA-66, OXA-72)",1
same,MIC,"Acinetobacter baumannii; Acinetobacter baumannii CDC-304 (OXA-66, OXA-72), read-out: MIC",64 µg/mL
same,MBC,"Acinetobacter baumannii; Acinetobacter baumannii, Acinetobacter baumannii CDC-33 (NDM-1, OXA-94)",> 128 µg/mL
same,MIC,"Acinetobacter baumannii; Acinetobacter baumannii, Acinetobacter baumannii CDC-33 (NDM-1, OXA-94), read-out: MIC",> 128 µg/mL
same,MBC,"Acinetobacter baumannii; Acinetobacter baumannii, Acinetobacter baumannii CDC-101 (OXA-24, OXA-65)",> 128 µg/mL
same,MIC,"Acinetobacter baumannii; Acinetobacter baumannii, Acinetobacter baumannii CDC-101 (OXA-24, OXA-65), read-out: MIC",> 128 µg/mL
same,MBC,"Acinetobacter baumannii; Acinetobacter baumannii, Acinetobacter baumannii CDC-303 (OXA-23, OXA-66)",128 µg/mL
same,MBC,"Acinetobacter baumannii; Acinetobacter baumannii, Acinetobacter baumannii CDC-304 (OXA-66, OXA-72)",64 µg/mL
